In US20250127700A1, “METHODS OF TREATING HYPERPIGMENTATION DISORDERS” (DermBiont, Inc., priority 2016, published 2025):
Entries after “also recorded” stand apart in the source; their conditions may differ.

Assays:
[1] = test system: C47 BI/6 mice; assay: Lightening of regrowing hair pigmentation in depilated mice, topical application; assay type: in vivo; details: 4% HQ; for Average gray value within the hair shafts, awl hairs / Average gray value within the hair shafts, zig-zag hairs: topical daily for 19 days after depilation, scale 0 (white) to 255 (black); for Average gray value within the hair shafts, awl hairs: 100 μm (0.0057%) Bis or ruboxistaurin in DMSO:propylene glycol, control value 181; for Maximum degree of hair lightening, zig-zag hairs below versus above the median gray value: zig-zag (small) hairs, FIG. 3, 0.0057% ruboxistaurin; for Color of zig-zag hairs compared to vehicle control (micrograph): FIG. 1, 100 μm Bis or ruboxistaurin; for Average gray value within the hair shafts, zig-zag hairs: 100 μm (0.0057%) Bis or ruboxistaurin, control 159
Excerpt: Briefly, […] mice aged 8-9 weeks (3 per group) were depilated to remove back hairs. These mice have black hair but no melanin pigmentation in the skin. Melanocytes in the hair follicle are responsible for the coat color. […] All compounds and vehicle were applied daily to the depilated areas for 19 days after depilation, i.e. throughout the period during which the new hair shafts are produced following depilation. Representative hairs of each type: guard, awl (large follicles deep in the dermis or subcutaneous follicle), auchene, and zig-zag (smaller follicles set in the more superficial dermis and the most numerous type of coat hairs), were randomly plucked (50/mouse) and photographed under a dissecting microscope. For separate analysis, 20 dark and light hairs from each mouse were subjected to computer assisted analysis of “gray value” for the pixels comprising the hair shaft.
Average gray value within the hair shafts were determined using ImageJ (NIH) software. The gray value is the sum of the gray values of all the pixels in the hair shaft divided by the number of pixels; and values range from 0 (white, no pigment) to 255 (black).
To determine the maximum degree of hair lightening (attributable to maximal drug exposure), an additional comparison was made between zig-zag hairs in each group that fell below versus above the median gray value.

[2] = Solubility statement; assay type: physicochemical
[3] = molecular target: PKC isoform γ (Homo sapiens, UniProt P05129); details: Jirousek et al. J Med Chem 1996; cited from earlier work
[4] = molecular target: PKC isoform η (Homo sapiens, UniProt P24723); details: Jirousek et al. J Med Chem 1996; cited from earlier work
Chain of PKC isoform η (P24723 whole entry, canonical isoform): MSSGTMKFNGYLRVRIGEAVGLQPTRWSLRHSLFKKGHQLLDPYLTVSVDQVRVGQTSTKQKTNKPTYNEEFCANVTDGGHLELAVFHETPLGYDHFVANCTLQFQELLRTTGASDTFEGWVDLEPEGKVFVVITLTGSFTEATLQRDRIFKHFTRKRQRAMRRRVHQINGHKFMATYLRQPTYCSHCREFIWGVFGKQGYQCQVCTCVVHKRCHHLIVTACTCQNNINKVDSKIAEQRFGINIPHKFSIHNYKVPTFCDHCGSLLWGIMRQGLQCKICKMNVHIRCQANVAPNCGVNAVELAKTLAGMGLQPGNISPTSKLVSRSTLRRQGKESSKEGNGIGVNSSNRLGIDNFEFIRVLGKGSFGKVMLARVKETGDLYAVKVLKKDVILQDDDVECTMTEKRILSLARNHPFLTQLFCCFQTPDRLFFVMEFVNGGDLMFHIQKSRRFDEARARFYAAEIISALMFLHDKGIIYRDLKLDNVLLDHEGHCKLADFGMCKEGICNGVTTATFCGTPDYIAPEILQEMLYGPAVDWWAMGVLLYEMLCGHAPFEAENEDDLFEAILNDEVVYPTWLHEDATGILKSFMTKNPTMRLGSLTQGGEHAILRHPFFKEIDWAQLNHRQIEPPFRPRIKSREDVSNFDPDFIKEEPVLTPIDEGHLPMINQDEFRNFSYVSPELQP

| SMILES | Average gray value within the hair shafts, awl hairs [1] | Maximum degree of hair lightening, zig-zag hairs below versus above the median gray value [1] | Color of zig-zag hairs compared to vehicle control (micrograph) [1] | Average gray value within the hair shafts, zig-zag hairs [1] | Solubility [2] | IC50 [3] [nM] | IC50 [4] [nM] |
| --- | --- | --- | --- | --- | --- | --- | --- |
| Oc1ccc(O)cc1 [HQ, hydroquinone] | 168 | minimally lighter than control hairs | minimal color difference | 156 | – | – | – |
| CN(C)CC1CCn2cc(c3ccccc32)C2=C(C(=O)NC2=O)c2cn(c3ccccc23)CCO1 (centres unmarked) [ruboxistaurin, 9-[(dimethylamino)methyl]-6,7,10,11-tetrahydro-9H,18H-5,21:12,17-di(metheno)dibenzo[e,k]pyrrolo[3,4-h][1,2,13]oxadiazacyclohexadecine-18,20-dione] | 155 | lighter than both control and 4% HQ hairs | significantly lighter; also recorded: lightest | 134 | poorly soluble | 300 | 52 |
